SMILES strings stand for the structures. A value given as a limit tells only on which side of the number the result lay.

In the assay the target is Tyrosine-protein kinase Lck (Homo sapiens, UniProt P06239). Kind of assay: Ability to inhibit autophosphorylation of immunopurified p56Ick.
Tyrosine-protein kinase Lck, sequence (P06239 whole entry): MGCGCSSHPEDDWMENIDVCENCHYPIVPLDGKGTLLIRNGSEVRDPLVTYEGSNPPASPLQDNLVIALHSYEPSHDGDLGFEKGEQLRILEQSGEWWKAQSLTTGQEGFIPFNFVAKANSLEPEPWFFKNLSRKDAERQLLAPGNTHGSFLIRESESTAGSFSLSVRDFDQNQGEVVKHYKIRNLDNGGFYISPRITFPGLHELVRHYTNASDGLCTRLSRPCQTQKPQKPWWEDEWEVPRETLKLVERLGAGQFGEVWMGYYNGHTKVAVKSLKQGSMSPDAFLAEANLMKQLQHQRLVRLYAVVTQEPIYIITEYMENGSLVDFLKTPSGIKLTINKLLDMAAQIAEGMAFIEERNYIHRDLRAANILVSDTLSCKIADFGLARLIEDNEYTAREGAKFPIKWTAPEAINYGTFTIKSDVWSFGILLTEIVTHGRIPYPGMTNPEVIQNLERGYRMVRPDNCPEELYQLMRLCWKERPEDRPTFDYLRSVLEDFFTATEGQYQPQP
The term IC50 denotes the concentration needed to halve the response being measured. Read a low IC50 as greater potency. The compound `N=c1oc2cc(O)c(O)cc2cc1C(N)=O` gave an IC50 of over 2000 µM.
`N=c1oc2c(O)c(O)ccc2cc1C(N)=O` gave an IC50 of 750 µM.
The figure for `N#C/C(=C\c1cc(O)c(O)c(O)c1)C(N)=O` is 2000 µM.
In the case of `NC(=O)c1cnc2cc(O)c(O)cc2c1` it was 610 µM.
In turn, `N=c1oc2ccccc2cc1C(N)=O` came in with an IC50 of 1500 µM.
In the case of `N=c1oc2cc(O)ccc2cc1C(N)=O`, the 50% inhibitory concentration (IC50) was over 2000 µM.
Compound `N#C/C(=C\c1cccc(O)c1)C(N)=O` gave an IC50 of 1500 µM.
The figure for `N=c1oc2c(O)cccc2cc1C(N)=O` is 100 µM; for `COC(=O)c1ccc2c(O)c(O)ccc2c1` it is 25 µM; for `N#C/C(=C\c1ccc(O)c(O)c1)C(N)=O` it is 22 µM.
The figure for `N#C/C(=C\c1ccc(O)cc1)C(N)=O` is 1000 µM; for `N#C/C(=C\c1cc(O)cc(O)c1)C(N)=O` it is 500 µM; for `NC(=O)c1ccc2cc(O)c(O)cc2c1` it is 26 µM.
The figure for `COC(=O)c1cc2ccc(O)c(O)c2cn1` is 0.2 µM; for `N=c1oc2ccc(O)cc2cc1C(N)=O` it is 100 µM.

The values above are taken from ChEMBL document CHEMBL1126592, “Bicyclic compounds as ring-constrained inhibitors of protein-tyrosine kinase p56lck” (J Med Chem, 1993).
